Columns and labels:
Experiment in all cases: Growth in liquid media in presence of test compound
Format in all cases: cell-based
[1] = test system: Candida albicans (ATCC 90028)
Text: (§1) Test organisms used were the bacterial strains Escherichia coli (ATCC 25922), Pseudomonas aeruginosa (ATCC 27853), Staphylococcus aureus (ATCC 25923), Streptococcus pyogenes (ATCC 19615), and Mycobacterium tuberculosis (H37Rv), and the yeast strain Candida albicans (ATCC 90028).
(§2) The liquid media used for growth were Luria-Bertani (Becton Dickinson, Sparks, Md.) and Mueller-Hinton (bio-Merieux, Paris, France) broths, but with Saburo medium for Candida and Middlebrook 7H9 medium (Difco) for mycobacteria.
(§3) The strains were grown at 37° C. and after suitable cell concentrations had been reached, 100 μL of each cell suspension was added to a tube with growth media and test compound. Cultivation of the bacteria was then carried out in the presence of each test compound at 37° C. and the tubes examined for visible growth. The compounds were tested at concentrations of either 500 mg/l, 50 mg/l or 5 mg/l. This assay was repeated twice.
(§4) Some compounds were only tested against some test organisms. It will be appreciated that the charge of these molecules will depend on the environment, some of the Examples are shown with a suitable counter ion, some without.

[2] = test system: Mycobacterium tuberculosis (H37Rv)
[3] = test system: Streptococcus pyogenes (ATCC 19615)
Text: as §1, §2, §3, §4

[4] = test system: Staphylococcus aureus (ATCC 25923)
Text: as §1, §2, §3, §4

[5] = test system: Escherichia coli (ATCC 25922)
Text: as §1, §2, §3, §4

Structure (SMILES)	Growth in the presence of test compound, C. albicans ([1]; 5 mg/L)	Growth in the presence of test compound, C. albicans ([1]; 50 mg/L)	Growth in the presence of test compound, C. albicans ([1]; 500 mg/L)	Growth in the presence of test compound, M. tuberculosis ([2]; 5 mg/L)	Growth in the presence of test compound, M. tuberculosis ([2]; 50 mg/L)	Growth in the presence of test compound, M. tuberculosis ([2]; 500 mg/L)	Growth in the presence of test compound, S. pyogenes ([3]; 5 mg/L)	Growth in the presence of test compound, S. pyogenes ([3]; 50 mg/L)	Growth in the presence of test compound, S. pyogenes ([3]; 500 mg/L)	Growth in the presence of test compound, S. aureus ([4]; 5 mg/L)	Growth in the presence of test compound, S. aureus ([4]; 50 mg/L)	Growth in the presence of test compound, S. aureus ([4]; 500 mg/L)	Growth in the presence of test compound, E. coli ([5]; 5 mg/L)	Growth in the presence of test compound, E. coli ([5]; 50 mg/L)	Growth in the presence of test compound, E. coli ([5]; 500 mg/L)
NCCCC[C@H](N)C(=O)NC[C@@H](CCc1ccccc1)B(O)O [Compound 37]	+	+	−	+	+	−									
C[C@H](N)C(=O)NC[C@H](Cc1ccccc1)B(O)O [Compound 40]				±	±	−									
C[C@@H](NC(=O)[C@@H](N)Cc1ccccc1)[C@@H](Cc1ccccc1)B1OC2CC3CC(C3(C)C)[C@@]2(C)O1 (stereo partly drawn) [Compound 27]	+	+	±	+	−	±	+	+	±						
CC1(C)C2CC3OB(C(CNC(=O)C(N)CCCCN)c4ccccc4)OC3(C)C1C2 (stereo not drawn) [Compound 24]				+	+	−									
CC1(C)C2CC3OB([C@@H](CNC(=O)[C@@H](N)Cc4ccccc4)c4ccccc4)O[C@]3(C)C1C2 (stereo partly drawn) [Compound 23]	+	+	−	+	+	−	+	+	−	+	+	−			
CC(N)C(=O)NC(CB1OC2CC3CC(C3(C)C)C2(C)O1)c1ccccc1 (stereo not drawn) [Compound 8]				+	+	−				+	+	±			
C[C@H](N)C(=O)N[C@@H](CB(O)O)Cc1ccccc1 [Compound 35]				+	+	−									
C[C@@H](B1OC2CC3CC(C3(C)C)[C@@]2(C)O1)[C@@H](Cc1ccccc1)NC(=O)[C@@H](N)Cc1ccccc1 (stereo partly drawn) [Compound 28]	+	+	±	+	−	−	+	+	±	+	+	±			
CC1(C)C2CC3OB(CC(Cc4ccccc4)NC(=O)C(N)Cc4c[nH]c5ccccc45)OC3(C)C1C2 (stereo not drawn) [Compound 5]				+	±	−				+	+	−			
CC(CB1OC2CC3CC(C3(C)C)C2(C)O1)NC(=O)C(N)CCCCN (stereo not drawn) [Compound 6]				+	+	±									
CC1(C)C2CC3OB([C@@H](CNC(=O)[C@@H](N)Cc4ccccc4)Cc4ccccc4)O[C@]3(C)C1C2 (stereo partly drawn) [Compound 10]	+	+	±	−	−	−	+	+	±	+	+	±			
C[C@H](CNC(=O)[C@@H](N)CCCCN)B1OC2CC3CC(C3(C)C)[C@@]2(C)O1 (stereo partly drawn) [Compound 16]	+	+	±	+	±	−									
N[C@@H](Cc1ccccc1)C(=O)N[C@@H](CB(O)O)Cc1ccccc1 [Compound 33]				±	−	−									
C[C@H](CNC(=O)[C@@H](N)Cc1ccccc1)B1OC2CC3CC(C3(C)C)[C@@]2(C)O1 (stereo partly drawn) [Compound 17]	+	+	±	+	+	−	+	+	−	+	+	−			
CC1(C)C2CC3OB(CC(Cc4ccccc4)NC(=O)C(N)Cc4ccccc4)OC3(C)C1C2 (stereo not drawn) [Compound 2]				+	+	±									
CC(N)C(=O)NC(CB1OC2CC3CC(C3(C)C)C2(C)O1)Cc1ccccc1 (stereo not drawn) [Compound 3]				+	−	−	+	+	−	+	+	−			
N[C@@H](Cc1ccccc1)C(=O)NC[C@@H](CCc1ccccc1)B(O)O [Compound 39]				+	+	−							+	+	−

— patent publication US20150018311A1, “THERAPEUTIC BORON-CONTAINING COMPOUNDS” (priority 2012, published 2015)
